Data as given in patent US20120039981A1, “Chewing Gum And Particulate Material For Controlled Release Of Active Ingredients” (priority 2009, published 2012).
Where two headings read alike, the source gives them in different places.

Source text: Absorption of nicotine from the oral cavity to the systemic circulation is dependent on the pH of the saliva and the […] of nicotine, which is about 7.8. Assuming a pH of the saliva of 6.8 only about 10% of the nicotine in saliva will be in the free base form. Thus, in order to promote absorption of nicotine in a free base form, which is the form predomi-nantly absorbed through the mucosa, the pH of the saliva must be increased. At a pH of 8.8 about 90% of the nicotine in saliva will then be in the free base form.

## CN1CCCC1c1cccnc1 (centres unmarked) [nicotine, 3-(1-methyl-2-pyrrolidinyl)-pyridine]
Saliva pH 6.8
  nicotine in saliva in the free base form: about 10%
Saliva pH 8.8
  nicotine in saliva in the free base form: about 90%
